± gives the standard deviation of the averaged measurements.
Columns and labels:
ERLOTINIB = compound: C#Cc1cccc(Nc2ncnc3cc(OCCOC)c(OCCOC)cc23)c1 [ERLOTINIB]; assay: surviving fraction relative to DMSO-only wells; higher = less growth inhibition; conditions: exposure time: 5 days
How it was run: (§1)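 After seeding at 250–500 cells per well in 384-well plates and a 24-hour wait, log-phase tumour cell lines were exposed without interruption for five days to inhibitors at 0.5, 1, 5, 10, 50, 100, 500 and 1000 nM. CellTiter-Glo luminescence was recorded after 10 minutes at room temperature. Viability is reported as surviving fraction, the luminescence normalised to the median of DMSO-only wells.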

VINORELBINE = compound: CCC1=C[C@@H]2CN(C1)Cc1c([nH]c3ccccc13)[C@@](C(=O)OC)(c1cc3c(cc1OC)N(C)[C@H]1[C@@](O)(C(=O)OC)[C@H](OC(C)=O)[C@]4(CC)C=CCN5CC[C@]31[C@@H]54)C2 [VINORELBINE]; assay: as above; conditions: exposure time: 5 days
How it was run: as §1

Test System | surviving fraction (ERLOTINIB; 0.5 nM) | surviving fraction (ERLOTINIB; 1 nM) | surviving fraction (ERLOTINIB; 5 nM) | surviving fraction (ERLOTINIB; 10 nM) | surviving fraction (ERLOTINIB; 50 nM) | surviving fraction (ERLOTINIB; 100 nM) | surviving fraction (ERLOTINIB; 500 nM) | surviving fraction (ERLOTINIB; 1000 nM) | surviving fraction (VINORELBINE; 0.5 nM) | surviving fraction (VINORELBINE; 1 nM) | surviving fraction (VINORELBINE; 5 nM) | surviving fraction (VINORELBINE; 10 nM) | surviving fraction (VINORELBINE; 50 nM) | surviving fraction (VINORELBINE; 100 nM) | surviving fraction (VINORELBINE; 500 nM) | surviving fraction (VINORELBINE; 1000 nM)
22RV1 PROSTATE | 1.1 ± 0.11 | 1.01 ± 0.12 | 1.03 ± 0.048 | 1 ± 0.028 | 1.04 ± 0.072 | 0.956 ± 0.17 | 0.991 ± 0.18 | 1.08 ± 0.021 | 1.04 ± 0.039 | 1.01 ± 0.057 | 0.916 ± 0.13 | 0.655 ± 0.12 | 0.12 ± 0.028 | 0.0623 ± 0.0038 | 0.0587 ± 0.012 | 0.06367 ± 0.00058
93VU HEADNECK | 1.1 ± 0.058 | 1.04 ± 0.095 | 1.1 ± 0.067 | 1.04 ± 0.12 | 1.06 ± 0.051 | 0.97 ± 0.15 | 0.514 ± 0.066 | 0.416 ± 0.034 | 1.02 ± 0.11 | 1.02 ± 0.19 | 1.04 ± 0.034 | 1.05 ± 0.075 | 0.554 ± 0.011 | 0.292 ± 0.03 | 0.141 ± 0.015 | 0.145 ± 0.022
143B BONE |  | 1.11 ± 0.067 | 1.13 ± 0.067 |  | 1.15 ± 0.053 | 1.17 ± 0.067 | 1.19 ± 0.14 | 1.15 ± 0.16 | 1 ± 0.02 | 1.016 ± 0.0057 | 1.016 ± 0.0071 | 0.864 ± 0.024 | 0.229 ± 0.0071 | 0.1625 ± 0.00071 | 0.039 ± 0.0028 | 0.0345 ± 0.00071
A549 LUNG |  | 1.06 ± 0.026 | 1.06 ± 0.027 | 1.056 ± 0.0021 | 1.05 ± 0.022 |  |  | 1.03 ± 0.029 | 0.982 ± 0.049 | 0.989 ± 0.049 | 0.979 ± 0.053 | 0.968 ± 0.045 | 0.461 ± 0.034 | 0.308 ± 0.023 | 0.228 ± 0.0085 | 0.274 ± 0.015
ASKA SYNOVIAL | 1.12 ± 0.047 | 1.15 ± 0.07 | 1.18 ± 0.06 | 1.19 ± 0.036 |  | 1.15 ± 0.067 | 1.09 ± 0.033 | 0.987 ± 0.099 | 0.912 ± 0.086 | 0.846 ± 0.075 | 0.43 ± 0.029 | 0.306 ± 0.015 | 0.247 ± 0.026 | 0.229 ± 0.02 | 0.257 ± 0.03 | 0.334 ± 0.022
BT20 BREAST | 1.22 ± 0.026 | 1.19 ± 0.11 | 1.19 ± 0.11 | 1.13 ± 0.069 | 1.08 ± 0.069 | 1.12 ± 0.034 | 1.03 ± 0.034 | 0.947 ± 0.081 | 1.16 ± 0.21 | 0.875 ± 0.22 | 0.973 ± 0.076 | 0.709 ± 0.18 | 0.0683 ± 0.025 | 0.055 ± 0.019 | 0.106 ± 0.029 | 0.09 ± 0.03
BT549 BREAST | 0.973 ± 0.036 | 1.01 ± 0.15 | 1.06 ± 0.11 | 1.1 ± 0.12 | 1.19 ± 0.071 | 1.22 ± 0.047 | 1.13 ± 0.03 | 1.03 ± 0.069 | 1.13 ± 0.039 | 1.21 ± 0.15 | 0.934 ± 0.12 | 0.618 ± 0.099 | 0.146 ± 0.037 | 0.132 ± 0.023 | 0.154 ± 0.043 | 0.158 ± 0.018
CADOES1 SOFT TISSUE | 0.854 ± 0.09 | 0.853 ± 0.033 | 0.882 ± 0.11 | 0.839 ± 0.11 | 0.783 ± 0.073 | 0.829 ± 0.057 |  | 0.842 ± 0.077 | 0.972 ± 0.19 | 0.882 ± 0.043 | 0.928 ± 0.12 | 0.84 ± 0.073 | 0.877 ± 0.12 | 0.825 ± 0.038 | 0.201 ± 0.013 | 0.0913 ± 0.0064
CAL51 BREAST | 0.969 ± 0.04 | 0.993 ± 0.069 | 1.05 ± 0.067 | 1.02 ± 0.062 | 1.07 ± 0.045 | 1.07 ± 0.036 | 1.09 ± 0.059 | 1.061 ± 0.0043 | 0.926 ± 0.047 | 0.945 ± 0.016 | 0.736 ± 0.035 | 0.452 ± 0.011 | 0.0567 ± 0.0027 | 0.045 ± 0.0027 | 0.0317 ± 0.0015 | 0.0318 ± 0.0033
CAL120 BREAST | 0.971 ± 0.033 | 0.964 ± 0.036 | 0.965 ± 0.041 | 0.963 ± 0.017 | 0.988 ± 0.012 | 0.976 ± 0.052 | 0.967 ± 0.035 | 0.958 ± 0.038 | 0.969 ± 0.032 | 0.9515 ± 0.0038 | 0.782 ± 0.015 | 0.623 ± 0.026 | 0.169 ± 0.017 | 0.157 ± 0.0098 | 0.154 ± 0.02 | 0.14 ± 0.0076
CASKI CERVIX | 0.908 ± 0.099 | 0.856 ± 0.053 |  | 0.8153 ± 0.0021 | 0.717 ± 0.049 | 0.547 ± 0.031 | 0.336 ± 0.013 | 0.239 ± 0.018 | 0.919 ± 0.041 | 0.911 ± 0.046 | 0.702 ± 0.014 | 0.188 ± 0.027 | 0.0597 ± 0.0076 | 0.087 ± 0.005 | 0.106 ± 0.012 | 0.1 ± 0.0083
CHLA90 AUTONOMIC GANGLIA | 1.01 ± 0.059 | 0.963 ± 0.12 |  | 0.94 ± 0.041 | 0.984 ± 0.09 | 0.948 ± 0.079 | 0.856 ± 0.057 | 0.88 ± 0.036 | 1.009 ± 0.01 | 1.05 ± 0.036 | 0.951 ± 0.058 | 0.768 ± 0.011 | 0.177 ± 0.023 | 0.105 ± 0.012 | 0.0883 ± 0.012 | 0.0917 ± 0.0061
CME SYNOVIAL | 1.29 ± 0.069 | 1.29 ± 0.052 | 1.32 ± 0.091 | 1.33 ± 0.17 | 1.44 ± 0.17 | 1.36 ± 0.12 | 1.29 ± 0.17 | 1.16 ± 0.17 | 1.11 ± 0.17 | 1.09 ± 0.11 | 1.21 ± 0.11 | 1.08 ± 0.12 | 0.488 ± 0.098 | 0.355 ± 0.085 | 0.275 ± 0.039 | 0.333 ± 0.033
COLO320DM LARGE INTESTINE | 1.17 ± 0.18 | 0.993 ± 0.074 | 1.06 ± 0.094 | 1.09 ± 0.12 | 1.155 ± 0.011 | 1.02 ± 0.078 | 1.04 ± 0.039 | 0.99 ± 0.032 | 1 ± 0.036 | 1.08 ± 0.059 | 1.06 ± 0.12 | 1.12 ± 0.088 | 1.09 ± 0.047 | 0.9883 ± 0.006 | 0.534 ± 0.022 | 0.293 ± 0.012
DU4475 BREAST | 0.965 ± 0.051 | 0.972 ± 0.086 |  |  |  | 1.17 ± 0.027 | 1.15 ± 0.14 | 1.02 ± 0.033 | 0.973 ± 0.088 | 1.01 ± 0.025 | 1.01 ± 0.14 | 0.906 ± 0.095 | 0.403 ± 0.091 | 0.211 ± 0.027 | 0.0703 ± 0.016 | 0.051 ± 0.015
H23 LUNG |  | 1.04 ± 0.038 | 0.998 ± 0.065 | 0.992 ± 0.055 | 0.774 ± 0.051 | 0.488 ± 0.016 | 0.349 ± 0.015 | 0.336 ± 0.015 | 1.03 ± 0.046 | 0.9937 ± 0.0096 | 1.04 ± 0.039 | 0.84 ± 0.014 | 0.205 ± 0.015 | 0.173 ± 0.011 | 0.22 ± 0.002 | 0.1743 ± 0.0015
HCC38 BREAST | 1.16 ± 0.22 | 1.22 ± 0.14 | 1.48 ± 0.025 | 1.29 ± 0.15 | 1.54 ± 0.15 | 1.17 ± 0.13 | 1.19 ± 0.2 | 1.1 ± 0.16 | 1.19 ± 0.19 | 1.12 ± 0.3 | 1.24 ± 0.14 | 1.06 ± 0.12 | 0.223 ± 0.039 | 0.216 ± 0.029 | 0.334 ± 0.06 | 0.251 ± 0.0055
HCC70 BREAST | 1.1 ± 0.094 |  | 1.15 ± 0.071 | 1.06 ± 0.097 | 1.03 ± 0.066 | 0.992 ± 0.022 | 1.03 ± 0.044 | 0.952 ± 0.096 | 1.04 ± 0.032 | 1.01 ± 0.014 | 0.937 ± 0.042 | 0.752 ± 0.029 | 0.108 ± 0.012 | 0.129 ± 0.013 | 0.131 ± 0.015 | 0.132 ± 0.02

From the supplement of paper PMC6045584
